According to paper PMC6030159 (Scientific Reports, 2018):
Several values for one entry are separate records, joined by “and”; a condition that tells them apart may be missing. Equal entries are not always repeated. Entries after “also recorded” stand apart in the source; their conditions may differ.

Experiments:
[1] = tested on: MYCN-amplified neuroblastoma cells (IMR-32, Kelly, SK-N-DZ); test: Resazurin growth assay, MYCN-amplified neuroblastoma cell lines; type: cell-based, human; settings: 48 hours; for growth of MYCN-amplified versus MYCN-non-amplified neuroblastoma cell lines: MYCMI-6 6.25 μM, MYCMI-11 and MYCMI-14 25 μM, 10058-F4 64 μM
Description: HEK293A, MCF7, MDA-MB231, SK-N-F1, SK-N-RA, SK-N-AS, COS-7, HeLa, BJ cells, and Rat1 fibroblasts TGR-1 (wt), HO15.19 (MYC knockout) and HOmyc3 (MYC reconstituted HO15.19) were maintained in DMEM. The neuroblastoma cell lines Kelly, IMR-32 and SK-N-DZ, and the Burkitt’s lymphoma cell lines Mutu, Daudi and ST486 were kept in RPMI. SK-N-BE(2) cells were maintained in a 1:1 mixture of EMEM and F12 media, supplemented with 1% non-essential amino acid solution (NEAA) and 0.5% Glutamine. U2OS-MYC-ER cell lines were cultured in phenol-red free DMEM and treated with 100 nM 4-hydroxytamoxifen (HOT) (Sigma-Aldrich) to activate MYC-ER. IMR-90 was maintained in MEM. All media were supplemented with 10% FBS and 1% penicillin and streptomycin and kept at 37 °C and 5% CO2. All cell lines were mycoplasma free. Cell proliferation assays were performed as described in Supplementary Information. […]
Cell proliferation assays. Cell growth and viability was estimated in triplicates with WST-1
(Roche) or Resazurin sodium salt (Sigma-Aldrich) assays in medium at 37°C and 5% CO 2 for
2 hours after which absorbance or fluorescence, respectively, was measured with an Omega
Fluostar (BMG Labtech) in a 96 well plate format. […]

MYCN:MAX interaction = tested on: T1, MYCN:MAX interaction; test: isPLA endogenous MYCN:MAX in SK-N-BE(2) cells; type: cell-based; settings: 2.5 μM, 16 hours
T1 construct: endogenous in cells; host or cells: SK-N-BE(2)
Procedure: (§1) The isPLA assay has been described. Antibodies used are listed in Supplementary Information. Briefly, cells were grown on collagen-coated chamber slides (Falcon), and treated with 1–10 μM of compounds, respectively, for 16 hours, then washed twice with PBS and fixed in ice cold methanol for 5–15 min at room temperature. Slides were washed in PBS with 0.05% Tween 20 and incubated in blocking buffer after which isPLA was performed using the Duolink® in situ PLA kit (Sigma-Aldrich) according to the manufacturer’s protocol. DNA was stained with DAPI. Incubation with primary antibodies were performed at +4 °C overnight. Images were taken using an Axiovert 200M inverted microscope (Zeiss) and fluorescent dots were quantified using semi-automated analysis in ImageJ (http://imagej.net) and averaged to number of dots per cell.

endogenous MYC protein = test: Western blot of endogenous MYC in HeLa cells; type: cell-based; settings: 10 μM, 24 hours
Procedure: These assays were performed essentially as described in[67],[68]. For further information on immunohistochemistry, and on primers and antibodies, see Supplementary Information.

[2] = target: T2, endogenous MYC:MAX interaction (Homo sapiens, UniProt P01106); test: isPLA endogenous MYC:MAX in breast cancer cells (MCF7); type: cell-based; settings: 24 hours; for MYC:MAX isPLA signals, % of DMSO-treated controls: 10 μM, breast cancer cells; for IC50: titration in MCF7 cells, read-out: IC50 for inhibition of MYC:MAX by isPLA
T2 construct: endogenous in cells; host or cells: breast cancer cells; MCF7 named for the titration
T2 sequence (P01106 whole entry): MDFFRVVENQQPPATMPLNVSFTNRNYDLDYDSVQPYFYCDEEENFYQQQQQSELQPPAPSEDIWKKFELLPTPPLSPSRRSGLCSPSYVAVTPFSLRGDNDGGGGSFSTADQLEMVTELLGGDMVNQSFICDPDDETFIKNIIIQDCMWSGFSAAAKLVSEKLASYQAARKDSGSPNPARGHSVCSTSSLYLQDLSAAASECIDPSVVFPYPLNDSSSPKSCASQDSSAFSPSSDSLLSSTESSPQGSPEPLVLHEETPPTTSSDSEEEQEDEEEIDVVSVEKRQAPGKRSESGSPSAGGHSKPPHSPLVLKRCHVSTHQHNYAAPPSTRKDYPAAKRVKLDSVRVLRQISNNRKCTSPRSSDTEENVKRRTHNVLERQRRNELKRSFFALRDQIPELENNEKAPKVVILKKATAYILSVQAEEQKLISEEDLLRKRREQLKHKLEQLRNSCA
Procedure: as §1, with “Briefly, cells were grown on collagen-coated chamber slides (Falcon), and treated with 1–10 μM of compounds, respectively, for 16 hours, then washed twice with PBS and fixed in ice cold methanol for 5–15 min at room temperature.” left out

BCL-XL = tested on: T3, BCL-XL; parameters: method as in PMID 23824742; settings: in vitro fluorescence polarization, BCL-XL:BAK; cited from earlier work
T3 construct: purchased Abcam

MYCbHLHZip:MAXbHLHZip = target: T4, MYCbHLHZip:MAXbHLHZip (Homo sapiens, UniProt P01106); test: MST MYC:MAX heterodimer formation assay; type: binding; settings: for shift of MAX thermophoresis relative to DMSO (MYC:MAX MST): 50 µM compound, 1 µM MYCbHLHZip
T4 construct: 6xHis (N); made in house; host or cells: E. coli BL21 (DE3), pET28a
T4 sequence (P01106 367-447 limits assumed): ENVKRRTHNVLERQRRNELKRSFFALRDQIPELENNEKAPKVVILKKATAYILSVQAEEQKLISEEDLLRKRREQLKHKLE
Description: We next investigated the capacity of the small molecule inhibitors to directly target the MYC:MAX interaction in vitro. Two biophysical interaction assays, microscale thermophoresis (MST)[44] and surface plasmon resonance (SPR)[45], were developed using recombinant MYC and MAX proteins (Suppl. Fig. S1C) (manuscript in prep.). MST is based on the shift of fluorescent molecules moving in a temperature gradient (thermophoresis), which can be perturbed by interactions. In the MST MYC:MAX interaction assay, fluorescently labeled MAXbHLHZip was combined with MYCbHLHZip pre-mixed with compound.
MST was carried out on a Monolith NT.115 with blue/green filters, kindly provided by Luca Jovine, Karolinska Institutet Huddinge, according to manufacturer’s protocol (NanoTemper). MYCbHLHZip, MAXbHLHZip, BSA and BCL-XL recombinant proteins and compounds were diluted and titrated in PBS supplemented with 0.05% Triton-X-114 or 0.05% Tween-20. Titration of molecules was carried out in 16 PCR tubes into which a fixed concentration of fluorescent molecule was added. The mixture was applied to capillaries (standard treated, NanoTemper), and scanned in the Monolith NT.115 to measure initial fluorescence of molecule. MST was induced and fluorescence was measured during 40 seconds. Double measurements were carried out (MST power of 20% and 40%, or 40% and 60%) for each sample. Delta fluorescence or relative fluorescence of fluorescent molecule normalized to control vehicle was plotted against titrated molecule concentration. The protein labeling kit GREEN-NHS (NanoTemper) was used to label primary amines of proteins according to manufacture’s protocol.

SMILES	GI50 ([1]; Homo sapiens, Neuroblastoma cell, resazurin)	growth of MYCN-amplified versus MYCN-non-amplified neuroblastoma cell lines [1]	MYCN:MAX interaction (isPLA) (MYCN:MAX interaction)	effect on endogenous MYC protein levels (western blot) (endogenous MYC protein)	MYC:MAX isPLA signals, % of DMSO-treated controls [2]	IC50 [2]	concentration of binding to BCL-XL (BCL-XL)	shift of MAX thermophoresis relative to DMSO (MYC:MAX MST) (MYCbHLHZip:MAXbHLHZip)	Kd (MYCbHLHZip:MAXbHLHZip; titration with 1 µM MYCbHLHZip and labeled MAXbHLHZip, read-out: Kd of thermophoresis shift, MYC:MAX MST)	effect on endogenous MYC protein levels (western blot) (endogenous MYC protein; listed as MYCM-14)
CCOc1ccc2nc3cc(/N=N/c4ccc(N)nc4N)ccc3c(N)c2c1 [MYCMI-6]	2.5 to 6 µM	reduced growth of the MYCN-amplified cell lines significantly stronger than the MYCN-non-amplified cell lines	significantly inhibited	did not affect MYC protein levels to any greater extent; also recorded: do not	7%	< 1.5 µM and 1.5 µM	14 nM	shifted MAX thermophoresis	4.3 µM	–
CCCCN(c1ccccc1)c1ncnc2c1cnn2C [MYCMI-11]	–	reduced growth of the MYCN-amplified cell lines significantly stronger than the MYCN-non-amplified cell lines	–	did not affect MYC protein levels to any greater extent; also recorded: do not	23%	~6 µM and 6 µM	–	less effective	–	–
O=C(O)/C=C/C(=O)Nc1cccc2c1-c1ccccc1C2=O [MYCMI-14]	–	reduced growth of the MYCN-amplified cell lines significantly stronger than the MYCN-non-amplified cell lines	–	did not affect MYC protein levels to any greater extent	23%	~6 µM and 6 µM	–	less effective	–	do not
